Measurements published in ChEMBL document CHEMBL1908105, “UDP-glucuronosyltransferases and clinical drug-drug interactions” (Pharmacol Ther, 2005).

T1: UDP-glucuronosyltransferase 1A3 (Homo sapiens, UniProt P35503)
T1 sequence (P35503 whole entry): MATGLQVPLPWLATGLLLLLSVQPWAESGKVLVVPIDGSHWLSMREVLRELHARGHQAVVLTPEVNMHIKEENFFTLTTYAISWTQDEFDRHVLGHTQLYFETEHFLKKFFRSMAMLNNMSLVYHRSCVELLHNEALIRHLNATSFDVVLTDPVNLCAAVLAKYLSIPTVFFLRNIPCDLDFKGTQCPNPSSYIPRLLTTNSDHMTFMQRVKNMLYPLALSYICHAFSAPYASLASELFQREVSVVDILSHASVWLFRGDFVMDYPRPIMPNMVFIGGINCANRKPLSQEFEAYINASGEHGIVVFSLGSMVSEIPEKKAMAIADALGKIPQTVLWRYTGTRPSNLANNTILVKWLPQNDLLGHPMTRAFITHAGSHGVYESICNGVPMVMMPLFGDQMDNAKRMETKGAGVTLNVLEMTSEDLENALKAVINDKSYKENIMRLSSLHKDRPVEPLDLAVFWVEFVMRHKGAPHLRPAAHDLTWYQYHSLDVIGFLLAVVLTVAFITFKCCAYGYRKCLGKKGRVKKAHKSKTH

T2: UGT2B7 (Homo sapiens, UniProt P16662)
T2 sequence (P16662 whole entry): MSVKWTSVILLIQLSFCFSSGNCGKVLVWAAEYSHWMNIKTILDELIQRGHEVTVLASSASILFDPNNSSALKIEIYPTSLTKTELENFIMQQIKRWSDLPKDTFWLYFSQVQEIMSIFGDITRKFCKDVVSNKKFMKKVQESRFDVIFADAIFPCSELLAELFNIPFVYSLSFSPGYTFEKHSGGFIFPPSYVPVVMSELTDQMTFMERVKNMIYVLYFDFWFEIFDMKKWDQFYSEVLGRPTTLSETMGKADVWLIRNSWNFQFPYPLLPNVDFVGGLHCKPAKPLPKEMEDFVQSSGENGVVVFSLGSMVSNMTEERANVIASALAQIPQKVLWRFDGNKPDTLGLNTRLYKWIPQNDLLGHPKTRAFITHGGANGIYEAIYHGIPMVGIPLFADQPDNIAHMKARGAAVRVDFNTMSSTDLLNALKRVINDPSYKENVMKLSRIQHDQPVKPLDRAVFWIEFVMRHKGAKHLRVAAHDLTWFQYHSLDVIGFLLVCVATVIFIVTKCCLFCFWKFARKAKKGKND

T3: UDP-glucuronosyltransferase 2B7 (Homo sapiens, UniProt P16662)
T3 sequence (P16662 whole entry): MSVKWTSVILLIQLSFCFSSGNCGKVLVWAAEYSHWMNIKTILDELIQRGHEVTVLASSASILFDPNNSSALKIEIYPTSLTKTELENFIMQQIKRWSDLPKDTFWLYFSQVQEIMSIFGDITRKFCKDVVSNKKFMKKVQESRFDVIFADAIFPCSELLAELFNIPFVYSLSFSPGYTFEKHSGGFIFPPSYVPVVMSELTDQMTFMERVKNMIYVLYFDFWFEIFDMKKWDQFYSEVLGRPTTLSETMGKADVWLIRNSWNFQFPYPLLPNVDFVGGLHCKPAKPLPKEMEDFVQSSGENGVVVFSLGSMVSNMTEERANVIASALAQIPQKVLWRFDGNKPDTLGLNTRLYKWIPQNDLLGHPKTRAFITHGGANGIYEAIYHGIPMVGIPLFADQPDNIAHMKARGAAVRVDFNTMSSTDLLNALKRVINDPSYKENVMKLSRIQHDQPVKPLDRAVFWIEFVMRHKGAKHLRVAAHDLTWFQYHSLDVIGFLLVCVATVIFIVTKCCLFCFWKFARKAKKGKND


Legend:
UGT1A3 = UGT1A3 (Homo sapiens, UniProt P35503); experiment: (§1) Drug glucuronidation reaction catalyzed by human recombinant UGT1A3; settings: recombinant UGT1A3
[1] = target: T1, UDP-glucuronosyltransferase 1A3; experiment: as §1
UGT2B7 = target: T2, UGT2B7; experiment: (§2) Drug glucuronidation reaction catalyzed by human recombinant UGT2B7; settings: recombinant UGT2B7
[2] = target: T3, UDP-glucuronosyltransferase 2B7; experiment: as §2
[3] = Inhibition of AZT glucuronidation by human UGT enzymes from liver microsomes; parameters: species or system Microsome
[4] = substrate: O=C(c1ccc(OCCN2CCCCC2)cc1)c1c(-c2ccc(O[C@H]3O[C@H](C(=O)O)[C@@H](O)[C@H](O)[C@H]3O)cc2)sc2cc(O)ccc12; experiment: (§3) Drug glucuronidation reaction catalyzed by human recombinant UGT1A10
[5] = substrate: CN1CC[C@]23c4c5ccc(O[C@@H]6O[C@H](C(=O)O)[C@@H](O)[C@H](O)[C@H]6O)c4O[C@H]2[C@@H](O)C=C[C@H]3[C@H]1C5; experiment: as §3

| Molecule | Km (UGT1A3) [µM] | Vmax [1] [pmol/min/mg protein] | Km (UGT2B7) [µM] | Vmax [2] [pmol/min/mg protein] | Ki [3] [µM] | Km [4] [µM] | Vmax [4] [µmol/min/mg] | Km [5] [µM] | Vmax [5] [µmol/min/mg] |
| --- | --- | --- | --- | --- | --- | --- | --- | --- | --- |
| CC(C(=O)O)c1ccc(-c2ccccc2)c(F)c1 (centres undefined) [FLURBIPROFEN] | 90 | 45 | 28 | 315 | 50 |  |  |  |  |
| UDP-glucuronosyltransferase 1A10 (Homo sapiens) (protein) MARAGWTSPVPLCVCLLLTCGFAEAGKLLVVPMDGSHWFTMQSVVEKLILRGHEVVVVMPEVSWQLERSLNCTVKTYSTSYTLEDQNREFMVFAHAQWKAQAQSIFSLLMSSSSGFLDLFFSHCRSLFNDRKLVEYLKESSFDAVFLDPFDTCGLIVAKYFSLPSVVFTRGIFCHHLEEGAQCPAPLSYVPNDLLGFSDAMTFKERVWNHIVHLEDHLFCQYLFRNALEIASEILQTPVTAYDLYSHTSIWLLRTDFVLDYPKPVMPNMIFIGGINCHQGKPLPMEFEAYINASGEHGIVVFSLGSMVSEIPEKKAMAIADALGKIPQTVLWRYTGTRPSNLANNTILVKWLPQNDLLGHPMTRAFITHAGSHGVYESICNGVPMVMMPLFGDQMDNAKRMETKGAGVTLNVLEMTSEDLENALKAVINDKSYKENIMRLSSLHKDRPVEPLDLAVFWVEFVMRHKGAPHLRPAAHDLTWYQYHSLDVIGFLLAVVLTVAFITFKCCAYGYRKCLGKKGRVKKAHKSKTH |  |  |  |  |  | 5 | 0.00055 | 12600 | 0.000629 |
